Earlier results, collected in patent publication EP1379546B1, “PEPTIDE FOR THE DIAGNOSIS AND THERAPY OF ALZHEIMER'S DISEASE” (Leibniz-Institut für Altersforschung - …, priority 2001, dated 2002).

Biological target: Aβ (Homo sapiens, UniProt P05067)
Details: inhibition of Aβ fibril formation and anticytotoxic effect, reported in Tomiyama et al., J. Biol. Chem. 1996

Aβ, sequence (P05067 672-711 limits assumed): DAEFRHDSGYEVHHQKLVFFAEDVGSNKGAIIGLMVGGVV

Structure (SMILES) | Dissoziationskonstante
CO[C@H]1/C=C/O[C@@]2(C)Oc3c(C)c(O)c4c(O)c(c(/C=N/N5CCN(C)CC5)c(O)c4c3C2=O)NC(=O)/C(C)=C\C=C\[C@H](C)[C@H](O)[C@@H](C)[C@@H](O)[C@@H](C)[C@H](OC(C)=O)[C@@H]1C [Rifampicin] | µM- bis mM-Bereich
CCCCCCCCCCCCCCCC[N+]1(C)CCCCC1.[Br-] [Hexadecyl-N-methylpiperidiniumbromid] | µM- bis mM-Bereich
